ChEMBL document CHEMBL1145252, “Macrolactonization catalyzed by the terminal thioesterase domain of the nonribosomal peptide synthetase responsible for lichenysin biosynthesis” (Bioorg Med Chem Lett, 2005)

Legend:
[1] = Michaelis-Menten constant for the hydrolysis of the lipopeptide SNAC by the licC thioesterase
[2] = Michaelis-Menten constant for the cyclization of the lipopeptide SNAC by the licC thioesterase
[3] = Ratio of Michaelis-Menten constant to that of catalytic activity by the licC thioesterase
[4] = Michaelis-Menten constant for the cyclization of the lipopeptide SNAC by the licC thioesterase; nd = not determined.
[5] = Catalytic activity for the hydrolysis of the lipopeptide SNAC by the licC thioesterase
[6] = Catalytic activity for the cyclization of the lipopeptide SNAC by the surfactin thioesterase
[7] = Catalytic activity for the hydrolysis of the lipopeptide SNAC by the thioesterase

SMILES	Km [1] [µM]	Km [2] [µM]	further results
CC[C@H](C)[C@H](NC(=O)[C@@H](CC(C)C)NC(=O)[C@H](CC(=O)O)NC(=O)[C@@H](NC(=O)[C@@H](C)NC(=O)[C@H](CC(C)C)NC(=O)[C@H](CCC(N)=O)NC(=O)C[C@@H](C)O)C(C)C)C(=O)SCCNC(C)=O	4.86	5.1	
CC[C@H](C)[C@H](NC(=O)[C@@H](CC(C)C)NC(=O)[C@H](CC(=O)O)NC(=O)[C@@H](NC(=O)[C@@H](CC(C)C)NC(=O)[C@H](CC(C)C)NC(=O)[C@H](CCC(N)=O)NC(=O)C[C@H](C)O)C(C)C)C(=O)SCCNC(C)=O	12		Ratio [3]: 19.5; Km [4]: Not detected; K cat [5]: 3.89 s⁻¹
CC[C@H](C)[C@H](NC(=O)[C@@H](CC(C)C)NC(=O)[C@H](CC(=O)O)NC(=O)[C@H](C)NC(=O)[C@@H](CC(C)C)NC(=O)[C@H](CC(C)C)NC(=O)[C@H](CCC(N)=O)NC(=O)C[C@@H](C)O)C(=O)SCCNC(C)=O	8.05	9.35	
CC[C@H](C)[C@H](NC(=O)[C@@H](CC(C)C)NC(=O)[C@H](CC(=O)O)NC(=O)[C@@H](NC(=O)[C@@H](CC(C)C)NC(=O)[C@H](C)NC(=O)[C@H](CCC(N)=O)NC(=O)C[C@@H](C)O)C(C)C)C(=O)SCCNC(C)=O	16.9	15.2	
CC[C@H](C)[C@H](NC(=O)[C@@H](CC(C)C)NC(=O)[C@H](CC(=O)O)NC(=O)[C@@H](NC(=O)[C@@H](CC(C)C)NC(=O)[C@H](CC(C)C)NC(=O)[C@H](CCC(N)=O)NC(=O)C[C@@H](C)O)C(C)C)C(=O)SCCNC(C)=O	8.13	6.83	K cat [6]: 1.77 s⁻¹; K cat [7]: 1.57 s⁻¹
CC[C@H](C)[C@H](NC(=O)[C@@H](CC(C)C)NC(=O)[C@H](CC(=O)O)NC(=O)[C@@H](NC(=O)[C@@H](CC(C)C)NC(=O)[C@H](CC(C)C)NC(=O)[C@H](C)NC(=O)C[C@@H](C)O)C(C)C)C(=O)SCCNC(C)=O	29	29.9	
CC[C@H](C)[C@H](NC(=O)[C@@H](CC(C)C)NC(=O)[C@H](CC(=O)O)NC(=O)[C@@H](NC(=O)[C@@H](CC(C)C)NC(=O)[C@H](CC(C)C)NC(=O)[C@H](CCC(N)=O)NC(=O)CCN)C(C)C)C(=O)SCCNC(C)=O	9.41		Ratio [3]: 17.3; Km [4]: Not detected; K cat [5]: 2.71 s⁻¹
CC[C@H](C)[C@H](NC(=O)[C@@H](CC(C)C)NC(=O)[C@H](C)NC(=O)[C@@H](NC(=O)[C@@H](CC(C)C)NC(=O)[C@H](CC(C)C)NC(=O)[C@H](CCC(N)=O)NC(=O)C[C@@H](C)O)C(C)C)C(=O)SCCNC(C)=O	8.17		
CC(=O)NCCSC(=O)[C@H](C)NC(=O)[C@@H](CC(C)C)NC(=O)[C@H](CC(=O)O)NC(=O)[C@@H](NC(=O)[C@@H](CC(C)C)NC(=O)[C@H](CC(C)C)NC(=O)[C@H](CCC(N)=O)NC(=O)C[C@@H](C)O)C(C)C	191		
CC[C@H](C)[C@H](NC(=O)[C@@H](C)NC(=O)[C@H](CC(=O)O)NC(=O)[C@@H](NC(=O)[C@@H](CC(C)C)NC(=O)[C@H](CC(C)C)NC(=O)[C@H](CCC(N)=O)NC(=O)C[C@@H](C)O)C(C)C)C(=O)SCCNC(C)=O	263	257	
